From patent US20260000656A1, “ANTIFUNGAL AGENTS WITH ENHANCED ACTIVITY IN ACIDIC PH” (Scynexis, Inc., priority 2017, published 2026)
≈ marks a conversion by molar mass, not a printed value. Read-outs that look alike come from different tables or passages of the source.

Tests used:
[1] = tested on: C. glabrata isolates; experiment: Broth microdilution susceptibility (CLSI M27-A3) at different medium pH; format: cell-based, Candida glabrata; conditions: for MIC range: 50% inhibition; for MIC range / MIC50 / MIC90: 10 vaginal isolates; for MIC50 / MIC90 / MIC: Nakaseomyces glabratus, 24 h; for MIC50: read-out: MIC50; for MIC90: read-out: MIC90; for MIC: read-out: MIC (50% inhibition)
Description: (§1) Ten strains each of C. glabrata and C. albicans vaginal isolates were tested. The strains were obtained from recent clinical trial patients with vulvovaginal candidiasis (VVC) prior to treatment. Candida strains were obtained from the Mycology Reference Library (MRL) at Case Western Reserve University School of Medicine, Ohio, United States.
(§2) Susceptibility testing was performed using a broth microdilution method, according to CLSI M27-A3 guidelines (CLSI. 2008. Reference Method for Broth Dilution Antifungal Susceptibility Testing of Yeasts; Approved Standard—Third Edition. Clinical and Laboratory Standards Institute, CLSI document M27-A3). Antifungals and concentrations tested were SCY-078 and micafungin (both at concentrations within the range of 0.015 to 8 μg/ml) and fluconazole (at concentrations within the range of 0.125 to 64 μg/ml). A 0.1-ml C. albicans and C. glabrata inoculum of 0.5-2.5×10^3 blastospores/ml in RPMI 1640 medium was added to each microdilution well. ATCC strains of Candida parapsilosis and Candida krusei QC isolates were also included concurrently to ensure quality control. Antifungal susceptibility testing was carried out for each isolate in RPMI 1640 at pH 7 (to mimic RPMI medium used in testing the susceptibility of yeast by the CLSI M-27A3 document), pH 5.7, and pH 4.5 (to mimic the pH of the vaginal cavity) by adjusting the pH of the media using NaOH or HCl. […] Agents Chemother., 43: 1383-1386 (1999).
(§3) […] SCY-078 powder was manufactured by Avista, Laboratories, NC. Micafungin and fluconazole were sourced from LGM Pharma.

[2] = tested on: C. albicans isolates; experiment: as above; format: cell-based, Candida albicans; conditions: for MIC range / MIC50 / MIC90: 10 vaginal isolates; for MIC90: read-out: MIC90; for MIC: read-out: MIC (50% inhibition)
Description: as §1, §2, §3

[3] = pH 4.5, 50% inhibition, pH 4.5, 24 h
[4] = pH 5.72, 50% inhibition, pH 5.72, 24 h
[5] = pH 7, 50% inhibition, pH 7.0, 24 h

Compound `OC(Cn1cncn1)(Cn1cncn1)c1ccc(F)cc1F` [Fluconazole, reference compound] has an MIC range ([1]; pH 4.5, 24 h) of 1 to 16 µg/mL, an MIC range ([1]; pH 5.72, 24 h) of 2 to 16 µg/mL and an MIC range ([1]; pH 7.0, 24 h) of 0.5 to 2 µg/mL. For the same compound, the “increase in MIC50, pH 7 compared to pH 4.5” value ([1]; C. glabrata isolates) was 8 fold, the MIC50 [1, 3] was 8 µg/mL (≈ 26.1 µM) and the MIC90 [1, 3] was 16 µg/mL (≈ 52.2 µM). The MIC ([1]; pH 4.5, C. glabrata MRL 32075, pH 4.5, 24 hours) was 8 µg/mL (≈ 26.1 µM), the MIC ([1]; pH 4.5, C. glabrata MRL 32232, pH 4.5, 24 hours) was 8 µg/mL (≈ 26.1 µM) and the MIC ([1]; pH 4.5, C. glabrata MRL 32626, pH 4.5, 24 hours) was 8 µg/mL (≈ 26.1 µM). The MIC ([1]; pH 4.5, C. glabrata MRL 32993, pH 4.5, 24 hours) was 16 µg/mL (≈ 52.2 µM), the MIC ([1]; pH 4.5, C. glabrata MRL 33204, pH 4.5, 24 hours) was 8 µg/mL (≈ 26.1 µM) and the MIC ([1]; pH 4.5, C. glabrata MRL 33960, pH 4.5, 24 hours) was 16 µg/mL (≈ 52.2 µM). For the same compound, the MIC ([1]; pH 4.5, C. glabrata MRL 33961, pH 4.5, 24 hours) was 1 µg/mL (≈ 3.27 µM), the MIC ([1]; pH 4.5, C. glabrata MRL 34339, pH 4.5, 24 hours) was 8 µg/mL (≈ 26.1 µM) and the MIC ([1]; pH 4.5, C. glabrata MRL 34407, pH 4.5, 24 hours) was 8 µg/mL (≈ 26.1 µM). The MIC ([1]; pH 4.5, C. glabrata MRL 34576, pH 4.5, 24 hours) was 16 µg/mL (≈ 52.2 µM), the MIC50 [1, 4] was 8 µg/mL (≈ 26.1 µM) and the MIC90 [1, 4] was 16 µg/mL (≈ 52.2 µM). The MIC ([1]; pH 5.72, C. glabrata MRL 32075, pH 5.72, 24 hours) was 8 µg/mL (≈ 26.1 µM), the MIC ([1]; pH 5.72, C. glabrata MRL 32232, pH 5.72, 24 hours) was 8 µg/mL (≈ 26.1 µM) and the MIC ([1]; pH 5.72, C. glabrata MRL 32626, pH 5.72, 24 hours) was 8 µg/mL (≈ 26.1 µM). For the same compound, the MIC ([1]; pH 5.72, C. glabrata MRL 32993, pH 5.72, 24 hours) was 16 µg/mL (≈ 52.2 µM), the MIC ([1]; pH 5.72, C. glabrata MRL 33204, pH 5.72, 24 hours) was 8 µg/mL (≈ 26.1 µM) and the MIC ([1]; pH 5.72, C. glabrata MRL 33960, pH 5.72, 24 hours) was 16 µg/mL (≈ 52.2 µM). For the same compound, the MIC ([1]; pH 5.72, C. glabrata MRL 33961, pH 5.72, 24 hours) was 2 µg/mL (≈ 6.53 µM), the MIC ([1]; pH 5.72, C. glabrata MRL 34339, pH 5.72, 24 hours) was 2 µg/mL (≈ 6.53 µM) and the MIC ([1]; pH 5.72, C. glabrata MRL 34407, pH 5.72, 24 hours) was 8 µg/mL (≈ 26.1 µM). For the same compound, the MIC ([1]; pH 5.72, C. glabrata MRL 34576, pH 5.72, 24 hours) was 8 µg/mL (≈ 26.1 µM), the MIC50 [1, 5] was 1 µg/mL (≈ 3.27 µM) and the MIC90 [1, 5] was 2 µg/mL (≈ 6.53 µM). For the same compound, the MIC ([1]; pH 7, C. glabrata MRL 32075, pH 7.0, 24 hours) was 2 µg/mL (≈ 6.53 µM), the MIC ([1]; pH 7, C. glabrata MRL 32232, pH 7.0, 24 hours) was 2 µg/mL (≈ 6.53 µM) and the MIC ([1]; pH 7, C. glabrata MRL 32626, pH 7.0, 24 hours) was 1 µg/mL (≈ 3.27 µM). For the same compound, the MIC ([1]; pH 7, C. glabrata MRL 32993, pH 7.0, 24 hours) was 2 µg/mL (≈ 6.53 µM), the MIC ([1]; pH 7, C. glabrata MRL 33204, pH 7.0, 24 hours) was 2 µg/mL (≈ 6.53 µM) and the MIC ([1]; pH 7, C. glabrata MRL 33960, pH 7.0, 24 hours) was 1 µg/mL (≈ 3.27 µM). It also gave an MIC ([1]; pH 7, C. glabrata MRL 33961, pH 7.0, 24 hours) of 1 µg/mL (≈ 3.27 µM), an MIC ([1]; pH 7, C. glabrata MRL 34339, pH 7.0, 24 hours) of 0.5 µg/mL (≈ 1.63 µM) and an MIC ([1]; pH 7, C. glabrata MRL 34407, pH 7.0, 24 hours) of 1 µg/mL (≈ 3.27 µM). The MIC ([1]; pH 7, C. glabrata MRL 34576, pH 7.0, 24 hours) was 1 µg/mL (≈ 3.27 µM), the MIC range ([2]; 50% inhibition, pH 4.5, 24 h) was 0.25 to 8 µg/mL and the MIC50 ([2]; 50% inhibition, pH 5.72, 24 h) was under 0.125 µg/mL. It also gave an MIC range ([2]; 50% inhibition, pH 5.72, 24 h) of under 0.125 to 1 µg/mL, an MIC range ([2]; 50% inhibition, pH 7.0, 24 h) of under 0.125 to 1 µg/mL and an MIC50 ([2]; Candida albicans, 24 h, pH 4.5, 50% inhibition, pH 4.5, 24 h, read-out: MIC50) of 0.25 µg/mL (≈ 0.816 µM). It also gave an MIC90 ([2]; Candida albicans, 24 h, pH 4.5, 50% inhibition, pH 4.5, 24 h) of 1 µg/mL (≈ 3.27 µM), an MIC ([2]; Candida albicans, 24 h, pH 4.5, C. albicans MRL 34366, pH 4.5, 24 hours) of 0.25 µg/mL (≈ 0.816 µM) and an MIC ([2]; Candida albicans, 24 h, pH 4.5, C. albicans MRL 34367, pH 4.5, 24 hours) of 1 µg/mL (≈ 3.27 µM). For the same compound, the MIC ([2]; Candida albicans, 24 h, pH 4.5, C. albicans MRL 34372, pH 4.5, 24 hours) was 0.25 µg/mL (≈ 0.816 µM), the MIC ([2]; Candida albicans, 24 h, pH 4.5, C. albicans MRL 34373, pH 4.5, 24 hours) was 0.5 µg/mL (≈ 1.63 µM) and the MIC ([2]; Candida albicans, 24 h, pH 4.5, C. albicans MRL 34374, pH 4.5, 24 hours) was 0.25 µg/mL (≈ 0.816 µM). The MIC ([2]; Candida albicans, 24 h, pH 4.5, C. albicans MRL 34385, pH 4.5, 24 hours) was 0.25 µg/mL (≈ 0.816 µM), the MIC ([2]; Candida albicans, 24 h, pH 4.5, C. albicans MRL 34389, pH 4.5, 24 hours) was 0.5 µg/mL (≈ 1.63 µM) and the MIC ([2]; Candida albicans, 24 h, pH 4.5, C. albicans MRL 34399, pH 4.5, 24 hours) was 8 µg/mL (≈ 26.1 µM). For the same compound, the MIC ([2]; Candida albicans, 24 h, pH 4.5, C. albicans MRL 34408, pH 4.5, 24 hours) was 0.25 µg/mL (≈ 0.816 µM), the MIC ([2]; Candida albicans, 24 h, pH 4.5, C. albicans MRL 34449, pH 4.5, 24 hours) was 0.5 µg/mL (≈ 1.63 µM) and the MIC50 ([2]; Candida albicans, 24 h, pH 5.72, 50% inhibition, pH 5.72, 24 h, read-out: MIC50) was under 0.125 µg/mL. It also gave an MIC90 ([2]; Candida albicans, 24 h, pH 5.72, 50% inhibition, pH 5.72, 24 h) of 0.25 µg/mL (≈ 0.816 µM), an MIC ([2]; Candida albicans, 24 h, pH 5.72, C. albicans MRL 34366, pH 5.72, 24 hours) of under 0.125 µg/mL and an MIC ([2]; Candida albicans, 24 h, pH 5.72, C. albicans MRL 34367, pH 5.72, 24 hours) of 0.25 µg/mL (≈ 0.816 µM). For the same compound, the MIC ([2]; Candida albicans, 24 h, pH 5.72, C. albicans MRL 34372, pH 5.72, 24 hours) was under 0.125 µg/mL, the MIC ([2]; Candida albicans, 24 h, pH 5.72, C. albicans MRL 34373, pH 5.72, 24 hours) was under 0.125 µg/mL and the MIC ([2]; Candida albicans, 24 h, pH 5.72, C. albicans MRL 34374, pH 5.72, 24 hours) was under 0.125 µg/mL. It also gave an MIC ([2]; Candida albicans, 24 h, pH 5.72, C. albicans MRL 34385, pH 5.72, 24 hours) of under 0.125 µg/mL, an MIC ([2]; Candida albicans, 24 h, pH 5.72, C. albicans MRL 34389, pH 5.72, 24 hours) of under 0.125 µg/mL and an MIC ([2]; Candida albicans, 24 h, pH 5.72, C. albicans MRL 34399, pH 5.72, 24 hours) of 1 µg/mL (≈ 3.27 µM). For the same compound, the MIC ([2]; Candida albicans, 24 h, pH 5.72, C. albicans MRL 34408, pH 5.72, 24 hours) was 0.25 µg/mL (≈ 0.816 µM), the MIC ([2]; Candida albicans, 24 h, pH 5.72, C. albicans MRL 34449, pH 5.72, 24 hours) was under 0.125 µg/mL and the MIC50 ([2]; Candida albicans, 24 h, pH 7, 50% inhibition, pH 7.0, 24 h, read-out: MIC50) was 0.25 µg/mL (≈ 0.816 µM). It also gave an MIC90 ([2]; Candida albicans, 24 h, pH 7, 50% inhibition, pH 7.0, 24 h) of 0.25 µg/mL (≈ 0.816 µM), an MIC ([2]; Candida albicans, 24 h, pH 7, C. albicans MRL 34366, pH 7.0, 24 hours) of under 0.125 µg/mL and an MIC ([2]; Candida albicans, 24 h, pH 7, C. albicans MRL 34367, pH 7.0, 24 hours) of 0.25 µg/mL (≈ 0.816 µM). It also gave an MIC ([2]; Candida albicans, 24 h, pH 7, C. albicans MRL 34372, pH 7.0, 24 hours) of under 0.125 µg/mL, an MIC ([2]; Candida albicans, 24 h, pH 7, C. albicans MRL 34373, pH 7.0, 24 hours) of 0.25 µg/mL (≈ 0.816 µM) and an MIC ([2]; Candida albicans, 24 h, pH 7, C. albicans MRL 34374, pH 7.0, 24 hours) of 0.25 µg/mL (≈ 0.816 µM). The MIC ([2]; Candida albicans, 24 h, pH 7, C. albicans MRL 34385, pH 7.0, 24 hours) was under 0.125 µg/mL, the MIC ([2]; Candida albicans, 24 h, pH 7, C. albicans MRL 34389, pH 7.0, 24 hours) was under 0.125 µg/mL and the MIC ([2]; Candida albicans, 24 h, pH 7, C. albicans MRL 34399, pH 7.0, 24 hours) was 1 µg/mL (≈ 3.27 µM). For the same compound, the MIC ([2]; Candida albicans, 24 h, pH 7, C. albicans MRL 34408, pH 7.0, 24 hours) was 0.25 µg/mL (≈ 0.816 µM) and the MIC ([2]; Candida albicans, 24 h, pH 7, C. albicans MRL 34449, pH 7.0, 24 hours) was 0.25 µg/mL (≈ 0.816 µM).
